Patent US20170232083A1, “METHODS OF DIAGNOSIS AND TREATMENT OF CELIAC DISEASE IN CHILDREN” (priority 2014, published 2017)

Tested on: PBMC (polyclonal gluten-specific T cells) of paediatric and adult CD patients
Test: IFN-γ ELISpot of PBMC after 3 day oral wheat challenge (SFU, % of maximal peptide response, dominance scores, EC50; Examples 5-6)
Type: cell-based, human
Conditions: for IFN-γ ELISpot response: after oral wheat challenge; for Cross-reactive T cell response: following wheat challenge
[1] = patient A, 11-17 yrs, cut-off 10 SFU
[2] = patient E, H, 11-17 yrs, cut-off 10 SFU
[3] = patient F, 11-17 yrs, cut-off 10 SFU
[4] = patient G, 11-17 yrs, cut-off 10 SFU
[5] = patient H (HLA-DQ2.5 homozygote), 3-5yrs, cut-off 10 SFU
[6] = patient H, 11-17 yrs, cut-off 10 SFU
[7] = patient ID not given, 11-17 yrs, cut-off 10 SFU
[8] = patient N, 3-5yrs, cut-off 10 SFU
[9] = patient P, 11-17 yrs, cut-off 21.6 SFU
[10] = patient Q, 11-17 yrs, cut-off 10 SFU
[11] = patient U, H, 11-17 yrs, cut-off 10 SFU
[12] = patient V, 6-10 yrs, cut-off 10 SFU
[13] = patient Y, 6-10 yrs, cut-off 10 SFU
[14] = patient eleven, 6-10 yrs, cut-off 10 SFU
[15] = patient four, 3-5yrs, cut-off 10 SFU
[16] = patient seven, 6-10 yrs, cut-off 10.5 SFU
[17] = patient ten, 3-5yrs, cut-off 10 SFU
[18] = patient three, 6-10 yrs, cut-off 10.5 SFU
[19] = patient twelve, 11-17 yrs, cut-off 10 SFU
[20] = patient two, 3-5yrs, cut-off 10 SFU
[21] = patient two, max peptide 60 SFU

QPFPQPEQPIPVQ
IFN-γ ELISpot response [1]: 5 SFU
Significant response as percentage of maximal peptide SFU (patient D, max peptide 30.5 SFU): ′′′ (41-70% = ′′′)
IFN-γ ELISpot response [2]: 76 SFU
Significant response as percentage of maximal peptide SFU (patient E, max peptide 224 SFU): ′′ (21-40% = ′′)
IFN-γ ELISpot response [3]: 103 SFU
Significant response as percentage of maximal peptide SFU (patient F, max peptide 178 SFU): ′′′ (41-70% = ′′′)
IFN-γ ELISpot response [4]: 3 SFU
IFN-γ ELISpot response [5]: 29 SFU
IFN-γ ELISpot response [6]: 10 SFU
Significant response as percentage of maximal peptide SFU (patient H, max peptide 17 SFU): ′′′ (41-70% = ′′′)
IFN-γ ELISpot response [7]: 95 SFU
Significant response as percentage of maximal peptide SFU (patient J, max peptide 196 SFU): ′′′ (41-70% = ′′′)
Significant response as percentage of maximal peptide SFU (patient K, max peptide 53 SFU): ′ (11-20% = ′)
Significant response as percentage of maximal peptide SFU (patient M, max peptide 48 SFU): ′′′ (41-70% = ′′′)
IFN-γ ELISpot response [8]: 2 SFU
IFN-γ ELISpot response [9]: 42 SFU
Significant response as percentage of maximal peptide SFU (patient P, max peptide 64 SFU): ′′′ (41-70% = ′′′)
IFN-γ ELISpot response [10]: 51 SFU
Significant response as percentage of maximal peptide SFU (patient Q, max peptide 97 SFU): ′′′ (41-70% = ′′′)
IFN-γ ELISpot response [11]: 27 SFU
Significant response as percentage of maximal peptide SFU (patient U, max peptide 81 SFU): ′′ (21-40% = ′′)
IFN-γ ELISpot response [12]: 27 SFU
Significant response as percentage of maximal peptide SFU (patient V, max peptide 35 SFU): + (>70% = +)
IFN-γ ELISpot response [13]: 9 SFU
IFN-γ ELISpot response [14]: 9 SFU
Significant response as percentage of maximal peptide SFU (patient five, max peptide 48 SFU): + (>70% = +)
IFN-γ ELISpot response [15]: 10 SFU
Significant response as percentage of maximal peptide SFU (patient four, max peptide 44 SFU): ′′ (21-40% = ′′)
IFN-γ ELISpot response [16]: 9 SFU
IFN-γ ELISpot response [17]: 11 SFU
Significant response as percentage of maximal peptide SFU (patient ten, max peptide 14.5 SFU): + (>70% = +)
IFN-γ ELISpot response [18]: 126 SFU
IFN-γ ELISpot response [19]: 20 SFU
IFN-γ ELISpot response [20]: 53 SFU
Significant response as percentage of maximal peptide SFU [21]: + (>70% = +)

TIPEQPEQPFPLQ
IFN-γ ELISpot response [1]: 0 SFU
IFN-γ ELISpot response [2]: 224 SFU
Significant response as percentage of maximal peptide SFU (patient E, max peptide 224 SFU): + (>70% = +)
IFN-γ ELISpot response [3]: 14 SFU
Significant response as percentage of maximal peptide SFU (patient F, max peptide 178 SFU): (6-10% = ^)
IFN-γ ELISpot response [4]: 2 SFU
IFN-γ ELISpot response [5]: 2 SFU
IFN-γ ELISpot response [6]: 4 SFU
IFN-γ ELISpot response [7]: 6 SFU
Significant response as percentage of maximal peptide SFU (patient J, max peptide 196 SFU): (6-10% = ^)
IFN-γ ELISpot response [8]: 3 SFU
IFN-γ ELISpot response [9]: 7 SFU
IFN-γ ELISpot response [10]: 8 SFU
IFN-γ ELISpot response [11]: 5 SFU
IFN-γ ELISpot response [12]: 0 SFU
IFN-γ ELISpot response [13]: 2 SFU
IFN-γ ELISpot response [14]: 3 SFU
IFN-γ ELISpot response [15]: 3 SFU
IFN-γ ELISpot response [16]: 1 SFU
IFN-γ ELISpot response [17]: 5 SFU
IFN-γ ELISpot response [18]: 18 SFU
IFN-γ ELISpot response [19]: 1 SFU
IFN-γ ELISpot response [20]: 11 SFU
Significant response as percentage of maximal peptide SFU [21]: ′ (11-20% = ′)

PEQPQPFPEQPVPQQP
Cross-reactive T cell response (subject A, 11-17yrs): 3 SFU
Cross-reactive T cell response (subject D, 11-17yrs): 3 SFU
Cross-reactive T cell response (subject E, 11-17yrs): 4 SFU
Cross-reactive T cell response (subject F, 11-17yrs): 6 SFU
Cross-reactive T cell response (subject G, 11-17yrs): 1 SFU
Cross-reactive T cell response (subject H): 0 SFU
Cross-reactive T cell response (subject I (3-5yrs/6-10yrs part)): 0 SFU
Cross-reactive T cell response (subject J (3-5yrs/6-10yrs part)): 7 SFU
Cross-reactive T cell response (subject K (3-5yrs/6-10yrs part)): 4 SFU
Cross-reactive T cell response (subject P, 11-17yrs): 8 SFU
Cross-reactive T cell response (subject Q, 11-17yrs): 6 SFU
Cross-reactive T cell response (subject T, 11-17yrs): 5 SFU
Cross-reactive T cell response (subject U, 11-17yrs): 1 SFU
Cross-reactive T cell response (subject V (3-5yrs/6-10yrs part)): 3 SFU
Cross-reactive T cell response (subject W (3-5yrs/6-10yrs part)): 4 SFU
Cross-reactive T cell response (subject Y (3-5yrs/6-10yrs part)): 2 SFU
Cross-reactive T cell response (subject five (3-5yrs/6-10yrs part)): 0 SFU
Cross-reactive T cell response (subject nine, 11-17yrs): 0 SFU
Cross-reactive T cell response (subject seven (3-5yrs/6-10yrs part)): 4 SFU
Cross-reactive T cell response (subject six (3-5yrs/6-10yrs part)): 2 SFU
Significant response as a percentage of maximal peptide SFU (subject ten): + (>70% = +)
Cross-reactive T cell response (subject ten (3-5yrs/6-10yrs part)): 11 SFU
Cross-reactive T cell response (subject two (3-5yrs/6-10yrs part)): 3 SFU
